Read-outs that look alike come from different tables or passages of the source.
Tests used:
Assay type in all cases: cell-based
[1] = test system: PAF binding sites on dog blood platelets; assay: Platelet aggregation response in dog whole blood with and without CV-6209; details: PAF alone, concentration 0.05 μM
Procedure: (§1) The platelet aggregation effect of the liposomes in the whole blood of various mammals was evaluated using a CHRONO-LOG Dual Chamber Whole Blood Aggregometer Model 560, according to the following protocol:
(§2) Immediately following collection the blood was mix by gentle inversion (maintain at room temperature). Prewarm 500 ul saline in disposable plastic cuvettes. Add 500 ul whole blood or PRP. Add disposable siliconized mini stir bar. Warm diluted blood 5 min at 37° C. prior to testing. Add test samples to aggregation chambers and insert impedance probes.
(§3) Platelet aggregation response was determined by increased resistance using an impedance electrode in a platelet suspension. Resistance measurements were taken 6-8 minutes after addition of the test article to 1 ml whole blood or platelet rich plasma (PRP).
To further investigate the platelet aggregation response triggered by the L-ether lipid in dog whole blood, the effect of a compound (CV-6209) that binds PAF binding sites on dog blood platelets was studied.

[2] = test system: platelets in dog whole blood; assay: Platelet aggregation response in whole blood (impedance aggregometer), dog blood
Procedure: as §1
(§4) Venous blood was collected using 3.8% sodium citrate in a Vacutainer. Dilution ratio is 1 to 9 (citrate solution: blood). The effect of D and L etherlipid and liiposmes containing them on aggregation of platelets from rats, dogs, monkeys and humans was tested.
as §2, §3

[3] = test system: platelets in rat whole blood; assay: Platelet aggregation response in whole blood (impedance aggregometer), rat blood
Procedure: as §1, §4, §2, §3

[4] = test system: platelets in human whole blood; assay: Platelet aggregation response in whole blood (impedance aggregometer), human blood
Procedure: as §1, §4, §2, §3

[5] = test system: MCF 7, a human breast carcinoma line; assay: In vitro growth inhibition, SRB assay, MCF7; details: 72 hrs treatment, read-out: In vitro growth inhibition GI50 (± sd), MCF7
Procedure: (§5) The anti-tumor activities of the D and L etherlipid were evaluated against A549, a human non-small cell lung carcinoma cell line; MCF 7, a human breast carcinoma line and MCF 7/adr, multi-drug resistant human breast carcinoma; were obtained from the DCT Tumor Repository (NCI-Frederick Cancer Research Facility, Frederick, Md.). U-937, a human histiocytic lymphoma cell line, was obtained from the American Type Culture Collection. Stock cultures of these human cell lines were maintained in RPMI 1640 tissue culture media (Life Technologies, Gaithersburg, Md.) supplemented with 10% heat inactivated fetal bovine serum (Life Technologies) and 10 mM HEPES (Life Technologies). Cultures were maintained in exponential growth in a humidified incubator with 5% CO2 and were passaged twice weekly. L1210 and L1210/vmdr, murine lymphocytic leukemias, (Yale University School of Medicine). L1210/vmdr, a selected line of L1210, was transfected with a plasmid (pHaMDR1/A) containing the mdr 1 gene.
(§6) The detailed methodology of the SRB assay is described elsewhere (2,3). […] The bound stain was solubilized with 100 ul of 10 mM Tris buffer (Sigma) and the optical density was read spectrophotometrically at 490 nm (Microplate Reader Model 3550-UV, Biorad, Hercules, Calif.). […] Percent growth was calculated as follows: (T−T0)/(C−T0)×100 where (T)=mean optical density of treated wells at a given drug concentration, (T0)=mean optical density of time zero wells, and (C)=mean optical density of control wells, or if T<T0 where cell killing has occurred, then percent cell death can be calculated as follows: (T−T0)/(T0)×100. By varying drug concentration, dose response curves were generated and the GI50 values were calculated. The GI50 values for each experiment were calculated using data obtained from three duplicate wells on two separate plates. The mean GI50 values and standard deviations were then calculated from the GI50's from each independent experiment.

[6] = test system: L1210 murine lymphocytic leukemia; assay: In vitro growth inhibition, SRB assay, L1210; details: read-out: In vitro growth inhibition GI50 (± sd), L1210
Procedure: as §5, §6

Lewis Lung = assay: In vitro growth inhibition, SRB assay, Lewis Lung; details: 72 hrs treatment, read-out: In vitro growth inhibition GI50 (± sd), Lewis Lung
Procedure: (§7) The detailed methodology of the SRB assay is described elsewhere (2,3). Briefly, 96-well microtiter plates were inoculated with 100 ul of the above cell lines at optimal cell densities, 3500-15,000 cells/well, in medium (RPMI 1640 with L-glutamine (Mediatech, Herndon, Va.)) supplemented with 10% fetal bovine serum (Life Technologies) for all cell lines. The plates were then incubated for 24 hours at 37° C., 100% humidity, and 5% CO2. After the 24 hour incubation, 100 μl of medium was added to the designated time zero plates, then the plates containing adherent cell lines were acid fixed with 50 ul of 50% trichloroacetic acid (wt/vol) (Sigma, St. Louis, Mo.) and refrigerated at 4° C. for 1 hour (the suspension cell lines were acid fixed with 80% trichloroacetic acid). The supernatant was discarded and the plates were rinsed 6 times with water and air dried. Then the test compound was added (100 ul aliquots) to the remaining (non-fixed) plates at 2 times the predetermined highest concentration and serially diluted across the plates. Growth control wells received an additional 100 ul of medium. […] The bound stain was solubilized with 100 ul of 10 mM Tris buffer (Sigma) and the optical density was read spectrophotometrically at 490 nm (Microplate Reader Model 3550-UV, Biorad, Hercules, Calif.). […] Percent growth was calculated as follows: (T−T0)/(C−T0)×100 where (T)=mean optical density of treated wells at a given drug concentration, (T0)=mean optical density of time zero wells, and (C)=mean optical density of control wells, or if T<T0 where cell killing has occurred, then percent cell death can be calculated as follows: (T−T0)/(T0)×100. By varying drug concentration, dose response curves were generated and the GI50 values were calculated. The GI50 values for each experiment were calculated using data obtained from three duplicate wells on two separate plates. The mean GI50 values and standard deviations were then calculated from the GI50's from each independent experiment.

[7] = test system: U-937, a human histiocytic lymphoma cell line; assay: In vitro growth inhibition, SRB assay, U937; details: read-out: In vitro growth inhibition GI50 (± sd), U937
Procedure: as §5, §6

[8] = test system: L1210/vmdr murine lymphocytic leukemia (mdr 1 transfected); assay: In vitro growth inhibition, SRB assay, L1210/vmdr; details: for GI50: 72 hrs treatment, read-out: In vitro growth inhibition GI50 (± sd), L1210/vmdr
Procedure: as §5
as §7, with “dried.” for “dried. Then the test compound was added (100 ul aliquots) to the remaining (non-fixed) plates at 2 times the predetermined highest concentration and serially diluted across the plates. Growth control wells received an additional 100 ul of medium.”

[9] = test system: A549, a human non-small cell lung carcinoma cell line; assay: In vitro growth inhibition, Sulforhodamine B (SRB) assay, A549; details: read-out: In vitro growth inhibition GI50 (± sd), A549
Procedure: as §5, §6

[10] = test system: MCF 7/adr, multi-drug resistant human breast carcinoma; assay: In vitro growth inhibition, SRB assay, MCF7/adr; details: 72 hrs treatment, read-out: In vitro growth inhibition GI50 (± sd), MCF7/adr
Procedure: as §5, §6

[11] = Mus musculus, L1210, 72 hrs treatment
[12] = Homo sapiens, U-937, 72 hrs treatment
[13] = Homo sapiens, A549, 72 hrs treatment

**Q.** What does the source list for “1-O-2-acetyl-sn-glycero-3-phosphocholine [PAF]”?
**A.** Dog Blood Response [1]: 23.5 Ω; Dog Blood Response ([2]; concentration 0.05 μM): 14.8 Ω; Rat Blood Response ([3]; concentration 0.05 μM): 0 Ω; Human Blood Response ([4]; concentration 0.05 μM): 6.0 Ω

**Q.** For `CCCCCCCCCCCCCCCCCCOCC(COP(=O)([O-])OCC[N+](C)(C)C)OC` (racemic) [rac-EL], which GI50 [5] is on record?
**A.** The GI50 was 15.9 ± 6.41 µM.

**Q.** And the GI50 ([6]; 72 hrs treatment)?
**A.** Its GI50 is 4.18 ± 1.38 µM.

**Q.** What about the GI50 (Lewis Lung) of the same compound?
**A.** Its GI50 is 27.1 ± 1.98 µM.

**Q.** What about the GI50 ([7]; 72 hrs treatment) of the same compound?
**A.** Its GI50 is 1.5 ± 0.22 µM.

**Q.** What about the GI50 [8] of the same compound?
**A.** Its GI50 is 6.09 ± 2.15 µM.

**Q.** What about the GI50 ([9]; 72 hrs treatment) of the same compound?
**A.** The GI50 was 8.36 ± 0.67 µM.

**Q.** What about the GI50 [10] of the same compound?
**A.** Its GI50 is 27.8 ± 0.3 µM.

**Q.** What does the source list for `Nc1ncnc2c1ncn2[C@@H]1O[C@H](COP(=O)(O)OP(=O)(O)O)[C@@H](O)[C@H]1O` [ADP]?
**A.** Dog Blood Response ([2]; concentration 20 μM): 4.0 Ω; Rat Blood Response ([3]; concentration 20 μM): 2.0 Ω; Human Blood Response ([4]; concentration 20 μM): 6.3 Ω

**Q.** `CCCCCCCCCCCCCCCCCCOC[C@@H](COP(=O)([O-])OCC[N+](C)(C)C)OC` [D-EL, 3-O-octadecyl-2-O-methyl-sn-glycero-1-phosphocholine] was tested. Which GI50 ([5]; Homo sapiens, MCF7a) did it give?
**A.** Its GI50 is 14.6 ± 5.92 µM.

**Q.** And the GI50 [6, 11]?
**A.** The GI50 was 3.6 ± 1.59 µM.

**Q.** And the GI50 (Lewis Lung; Lewis lung carcinoma)?
**A.** Its GI50 is 25.4 ± 0.95 µM.

**Q.** And the GI50 [7, 12]?
**A.** The GI50 was 1.41 ± 0.29 µM.

**Q.** And the “activity against L1210/vmdr compared to L-EL and the racemate” value ([8]; 72 hrs)?
**A.** Its value is “slight but statistically significant greater activity”.

**Q.** What about the GI50 ([8]; Mus musculus) of the same compound?
**A.** Its GI50 is 4.87 ± 0.77 µM.

**Q.** What about the GI50 [9, 13] of the same compound?
**A.** The GI50 was 7.96 ± 0.57 µM.

**Q.** What about the GI50 ([10]; Homo sapiens, NCI/ADR-RES) of the same compound?
**A.** Its GI50 is 25.1 ± 1.69 µM.

**Q.** For `CCCCCCCCCCCCCCCCCCOC[C@H](COP(=O)([O-])OCC[N+](C)(C)C)OC` [L-EL, 1-O-octadecyl-2-O-methyl-sn-glycero-3-phosphocholine], which GI50 ([5]; Homo sapiens, MCF7a) is on record?
**A.** Its GI50 is 18.6 ± 4.57 µM.

**Q.** And the GI50 [6, 11]?
**A.** The GI50 was 4.77 ± 0.41 µM.

**Q.** What about the GI50 (Lewis Lung; Lewis lung carcinoma) of the same compound?
**A.** Its GI50 is 29.1 ± 2.05 µM.

**Q.** And the GI50 [7, 12]?
**A.** Its GI50 is 1.53 ± 0.42 µM.

**Q.** What about the GI50 ([8]; Mus musculus) of the same compound?
**A.** Its GI50 is 8.77 ± 1.47 µM.

**Q.** What about the GI50 [9, 13] of the same compound?
**A.** The GI50 was 9.07 ± 0.39 µM.

**Q.** What about the GI50 ([10]; Homo sapiens, NCI/ADR-RES) of the same compound?
**A.** Its GI50 is 27.9 ± 2.1 µM.

**Q.** For collagen, which “Dog Blood Response” value ([2]; concentration 20 μg/μL) is on record?
**A.** Its value is 12 Ω.

**Q.** What about the “Rat Blood Response” value ([3]; concentration 20 μg/μL) of the same compound?
**A.** Its value is 34.1 Ω.

**Q.** What about the “Human Blood Response” value ([4]; concentration 20) of the same compound?
**A.** Its value is 36 Ω.
